Assay results: the OligoGym collection
HELM strings list units from the 5' end as sugar, base in round brackets, then linkage (d deoxyribose, r ribose, m 2'-O-methyl, p phosphodiester). Strings are as the collection lists them; they lack the last nucleoside at the 3' end of the tested compound. [moe] = 2'-O-(2-methoxyethyl) (MOE); [sp] = phosphorothioate linkage; [m5C] = 5-methylcytosine

Biological target: GFAP
Test: mouse, dose not given
Conditions: ASO

Substance | 3 h FOB score
RNA1{[moe]([m5C])[sp].[moe](T)p.[moe](T)p.[moe](T)p.[moe](A)p.[moe](T)p.d(T)[sp].d(T)[sp].d(T)[sp].d(T)[sp].d([m5C])[sp].d([m5C])[sp].d(T)[sp].d([m5C])[sp].d(A)[sp].d(G)[sp].[moe]([m5C])p.[moe](G)[sp].[moe](A)}$$$$ (last 3' nucleoside missing) | 1 score 0-7
RNA1{[moe](T)[sp].[moe](G)p.[moe]([m5C])p.[moe]([m5C])p.[moe](A)p.d(T)[sp].d(T)[sp].d(T)[sp].d(A)[sp].d(T)[sp].d([m5C])[sp].d(T)[sp].d(G)[sp].d(T)[sp].d(G)[sp].[moe]([m5C])p.[moe](T)p.[moe](T)[sp].[moe](T)}$$$$ (last 3' nucleoside missing) | 1 score 0-7
RNA1{[moe](G)[sp].[moe](G)p.[moe]([m5C])p.[moe](A)p.[moe]([m5C])[sp].d(A)[sp].d(G)[sp].d(T)[sp].d(T)[sp].d([m5C])[sp].d([m5C])[sp].d([m5C])[sp].d(A)[sp].d(G)[sp].d(A)[sp].[moe](T)p.[moe](A)p.[moe]([m5C])[sp].[moe](T)}$$$$ (last 3' nucleoside missing) | 5 score 0-7
RNA1{[moe]([m5C])[sp].[moe](A)p.[moe](G)p.[moe]([m5C])p.[moe]([m5C])p.[moe](T)p.d(G)[sp].d(G)[sp].d(T)[sp].d(T)[sp].d(A)[sp].d(G)[sp].d([m5C])[sp].d([m5C])[sp].d(T)[sp].d(T)[sp].[moe](T)p.[moe]([m5C])[sp].[moe](T)}$$$$ (last 3' nucleoside missing) | 4 score 0-7
RNA1{[moe](G)[sp].[moe](T)p.[moe](G)p.[moe](G)p.[moe](A)[sp].d(G)[sp].d(G)[sp].d(G)[sp].d([m5C])[sp].d(G)[sp].d(A)[sp].d(T)[sp].d(G)[sp].d(T)[sp].d(A)[sp].[moe](G)p.[moe](T)p.[moe](A)[sp].[moe](G)}$$$$ (last 3' nucleoside missing) | 7 score 0-7
RNA1{[moe]([m5C])[sp].[moe](A)p.[moe](T)p.[moe](T)p.[moe](T)[sp].d(G)[sp].d(T)[sp].d([m5C])[sp].d(T)[sp].d(T)[sp].d(T)[sp].d(A)[sp].d(T)[sp].d(T)[sp].d(T)[sp].[moe](T)p.[moe](T)p.[moe]([m5C])[sp].[moe]([m5C])}$$$$ (last 3' nucleoside missing) | 0 score 0-7
RNA1{[moe](G)[sp].[moe](G)p.[moe]([m5C])p.[moe](T)p.[moe](T)[sp].d([m5C])[sp].d(A)[sp].d(T)[sp].d([m5C])[sp].d(T)[sp].d(G)[sp].d([m5C])[sp].d(T)[sp].d(T)[sp].d([m5C])[sp].[moe]([m5C])p.[moe](T)p.[moe](G)[sp].[moe](G)}$$$$ (last 3' nucleoside missing) | 1 score 0-7
RNA1{[moe](G)[sp].[moe]([m5C])p.[moe]([m5C])p.[moe](A)p.[moe](G)p.[moe](T)p.d(G)[sp].d(T)[sp].d([m5C])[sp].d(T)[sp].d(T)[sp].d([m5C])[sp].d(A)[sp].d([m5C])[sp].d(T)[sp].d(T)[sp].[moe](T)p.[moe](G)[sp].[moe]([m5C])}$$$$ (last 3' nucleoside missing) | 1 score 0-7
RNA1{[moe](T)[sp].[moe](T)p.[moe](G)p.[moe](A)p.[moe](G)[sp].d(A)[sp].d(T)[sp].d(A)[sp].d(T)[sp].d([m5C])[sp].d(T)[sp].d(T)[sp].d(G)[sp].d(T)[sp].d(G)[sp].[moe](A)p.[moe]([m5C])p.[moe]([m5C])[sp].[moe](T)}$$$$ (last 3' nucleoside missing) | 4 score 0-7
RNA1{[moe](G)[sp].[moe](T)p.[moe](G)p.[moe](A)p.[moe](T)[sp].d(T)[sp].d(T)[sp].d(T)[sp].d([m5C])[sp].d([m5C])[sp].d([m5C])[sp].d([m5C])[sp].d(G)[sp].d(T)[sp].d([m5C])[sp].[moe](T)p.[moe](T)p.[moe](T)[sp].[moe](G)}$$$$ (last 3' nucleoside missing) | 6 score 0-7
RNA1{[moe](G)[sp].[moe](T)p.[moe](G)p.[moe](T)p.[moe](G)p.[moe](T)p.d(A)[sp].d(T)[sp].d(T)[sp].d(A)[sp].d(G)[sp].d(G)[sp].d(A)[sp].d(T)[sp].d([m5C])[sp].d([m5C])[sp].[moe]([m5C])p.[moe](A)[sp].[moe](T)}$$$$ (last 3' nucleoside missing) | 4 score 0-7
RNA1{[moe](G)[sp].[moe](G)p.[moe](T)p.[moe](A)p.[moe](A)[sp].d(G)[sp].d([m5C])[sp].d(T)[sp].d(G)[sp].d([m5C])[sp].d(T)[sp].d(G)[sp].d(G)[sp].d(A)[sp].d(G)[sp].[moe](T)p.[moe](A)p.[moe](A)[sp].[moe](G)}$$$$ (last 3' nucleoside missing) | 7 score 0-7
RNA1{[moe](G)[sp].[moe]([m5C])p.[moe](A)p.[moe](T)p.[moe](T)p.[moe](T)p.d(G)[sp].d(T)[sp].d([m5C])[sp].d(T)[sp].d(T)[sp].d(T)[sp].d(A)[sp].d(T)[sp].d(T)[sp].d(T)[sp].[moe](T)p.[moe](T)[sp].[moe]([m5C])}$$$$ (last 3' nucleoside missing) | 1 score 0-7
RNA1{[moe](G)[sp].[moe](A)p.[moe](G)p.[moe](T)p.[moe](G)[sp].d(T)[sp].d(G)[sp].d(T)[sp].d(A)[sp].d(T)[sp].d(T)[sp].d(A)[sp].d(G)[sp].d(G)[sp].d(A)[sp].[moe](T)p.[moe]([m5C])p.[moe]([m5C])[sp].[moe]([m5C])}$$$$ (last 3' nucleoside missing) | 6 score 0-7
RNA1{[moe](T)[sp].[moe](A)p.[moe](T)p.[moe](T)p.[moe](A)[sp].d(G)[sp].d(G)[sp].d(A)[sp].d(T)[sp].d([m5C])[sp].d([m5C])[sp].d([m5C])[sp].d(A)[sp].[moe](T)p.[moe]([m5C])p.[moe](T)[sp].[moe](A)}$$$$ (last 3' nucleoside missing) | 3 score 0-7
RNA1{[moe](G)[sp].[moe]([m5C])p.[moe](T)p.[moe](T)p.[moe](T)p.[moe](T)p.d(G)[sp].d(A)[sp].d(G)[sp].d(A)[sp].d(T)[sp].d(A)[sp].d(T)[sp].d([m5C])[sp].d(T)[sp].d(T)[sp].[moe](G)p.[moe](T)[sp].[moe](G)}$$$$ (last 3' nucleoside missing) | 2 score 0-7
RNA1{[moe]([m5C])[sp].[moe](T)p.[moe](A)p.[moe](G)p.d(T)[sp].d([m5C])[sp].d(A)[sp].d(G)[sp].d([m5C])[sp].d([m5C])[sp].d(T)[sp].d(G)[sp].d(G)[sp].d(T)[sp].[moe](T)p.[moe](A)p.[moe](G)p.[moe]([m5C])[sp].[moe]([m5C])}$$$$ (last 3' nucleoside missing) | 4 score 0-7
RNA1{[moe](G)[sp].[moe]([m5C])p.[moe]([m5C])p.[moe](A)p.[moe](T)[sp].d(T)[sp].d(T)[sp].d(A)[sp].d(T)[sp].d([m5C])[sp].d(T)[sp].d(G)[sp].d(T)[sp].d(G)[sp].d([m5C])[sp].[moe](T)p.[moe](T)p.[moe](T)[sp].[moe](A)}$$$$ (last 3' nucleoside missing) | 6 score 0-7
RNA1{[moe](T)[sp].[moe]([m5C])p.[moe](T)p.[moe]([m5C])p.[moe](A)[sp].d(G)[sp].d(T)[sp].d(T)[sp].d(T)[sp].d(T)[sp].d([m5C])[sp].d([m5C])[sp].d(T)[sp].d([m5C])[sp].d([m5C])[sp].[moe](A)p.[moe](G)p.[moe]([m5C])[sp].[moe](A)}$$$$ (last 3' nucleoside missing) | 4 score 0-7
RNA1{[moe](G)[sp].[moe](G)p.[moe]([m5C])p.[moe](A)p.[moe](G)[sp].d(T)[sp].d(A)[sp].d(T)[sp].d(T)[sp].d(A)[sp].d([m5C])[sp].d([m5C])[sp].d(T)[sp].d([m5C])[sp].d(T)[sp].[moe](A)p.[moe]([m5C])p.[moe](T)[sp].[moe](A)}$$$$ (last 3' nucleoside missing) | 3 score 0-7
RNA1{[moe]([m5C])[sp].[moe](T)p.[moe](G)p.[moe]([m5C])p.[moe](T)[sp].d([m5C])[sp].d(T)[sp].d(T)[sp].d(T)[sp].d([m5C])[sp].d([m5C])[sp].d([m5C])[sp].d(T)[sp].d([m5C])[sp].d(A)[sp].[moe]([m5C])p.[moe](T)p.[moe](T)[sp].[moe](T)}$$$$ (last 3' nucleoside missing) | 0 score 0-7
RNA1{[moe](T)[sp].[moe]([m5C])p.[moe](A)p.[moe](G)p.[moe]([m5C])[sp].d([m5C])[sp].d(T)[sp].d(G)[sp].d(G)[sp].d(T)[sp].d(T)[sp].d(A)[sp].d(G)[sp].[moe]([m5C])p.[moe]([m5C])p.[moe](T)[sp].[moe](T)}$$$$ (last 3' nucleoside missing) | 3 score 0-7
RNA1{[moe](A)[sp].[moe](A)p.[moe](A)p.[moe](G)p.[moe](G)p.d([m5C])[sp].d(A)[sp].d([m5C])[sp].d(A)[sp].d(G)[sp].d(T)[sp].d(T)[sp].d([m5C])[sp].d([m5C])[sp].d([m5C])[sp].[moe](A)p.[moe](G)p.[moe](A)[sp].[moe](T)}$$$$ (last 3' nucleoside missing) | 2 score 0-7
RNA1{[moe]([m5C])[sp].[moe]([m5C])p.[moe]([m5C])p.[moe]([m5C])p.[moe](T)[sp].d([m5C])[sp].d(T)[sp].d(T)[sp].d([m5C])[sp].d([m5C])[sp].d(T)[sp].d([m5C])[sp].d([m5C])[sp].d(A)[sp].d(G)[sp].[moe]([m5C])p.[moe]([m5C])p.[moe](G)[sp].[moe]([m5C])}$$$$ (last 3' nucleoside missing) | 3 score 0-7
RNA1{[moe](A)[sp].[moe](G)p.[moe](T)p.[moe]([m5C])p.[moe](T)[sp].d([m5C])[sp].d(A)[sp].d(G)[sp].d(T)[sp].d(T)[sp].d(T)[sp].d(T)[sp].d([m5C])[sp].d([m5C])[sp].d(T)[sp].[moe]([m5C])p.[moe]([m5C])p.[moe](A)[sp].[moe](G)}$$$$ (last 3' nucleoside missing) | 2 score 0-7
RNA1{[moe](A)[sp].[moe](T)p.[moe](T)p.[moe](T)p.[moe](G)p.d(G)[sp].d([m5C])[sp].d(A)[sp].d(G)[sp].d(T)[sp].d(A)[sp].d(T)[sp].d(T)[sp].d(A)[sp].d([m5C])[sp].[moe]([m5C])p.[moe](T)p.[moe]([m5C])[sp].[moe](T)}$$$$ (last 3' nucleoside missing) | 2 score 0-7
